Experimental findings from patent US5246932A, “Heterocyclic compounds” (Imperial Chemical Industries PLC, priority 1991, dated 1993) are described below.

Assay [1] concerns the target adenosine receptor known as A2. In words: Guinea-pig Aortic Constriction Test. In kind it is biochemical. The note with it: antagonism of adenosine relaxation of phenylephrine-constricted guinea-pig aortic ring. The text has this:
(b) Guinea-pig Aortic Constriction Test
This test has been described by Collis et al. (British J. Pharmacology, 1989, 97, 1274-1278) and involves the assessment of the ability of a test compound to antagonise the attenuatory effect of adenosine on phenylephrine induced constriction of a guinea-pig aortic ring preparation, an effect mediated via the adenosine receptor known as A2.
The aortic ring preparation is obtained as follows:- Sections (3-5 mm) of guinea pig thoracic aorta (from Dunkin Hartley strain, 250-400 g males) are mounted in organ baths containing oxygenated Krebs solution (95% O2 : 5% CO2) at 37° C. [The nucleoside transport inhibitor, dipyridamole (10 μM) is present in the Krebs solution]. The isometric tension development is recorded and the tissue placed under a resting tension of 1 g and allowed to equilibrate for 1 hour. […] Adenosine is next added cumulatively (10^-7 M to 10^-3 M) and the evoked relaxation is measured. […]
Test compounds are assessed by plotting the percentage relaxation observed against the logarithm of the adenosine concentration, competitive adenosine antagonism producing a parallel shift in the standard adenosine concentration/relaxation (dose response) curve. […] The pA2 value, which is an estimate of the concentration of antagonist to give a dose ratio of 2, may also be calculated using a standard computation technique.

For assay [2], the system named is vasodilation response during twitch contraction of skeletal muscle. In words: Anaesthetised cat exercise hyperaemia test. In kind it is in vivo. The settings on record: 10 mg.kg^-1. The procedure:
f) Anaesthetised cat exercise hyperaemia test
This test involves assessment of the effect of a test compound to antagonise the vasodilation response which occurs during twitch contraction of skeletal muscle. The vasodilation is mediated partly by the release of endogenous adenosine from the contracting skeletal muscle.
Cats (2.4-3.6 kg) are anaesthetised with sodium pentobarbitone (50 mg.kg^-1 ip). The following blood vessels are catheterized: left jugular vein (for infusion of anaesthetic, at approximately […] as a 6 mg.ml^-1 solution in isotonic saline), right external jugular vein (for administration of drugs and test compounds), right common carotid artery (for measurement of systemic arterial blood pressure and pulse rate) and right brachial artery (for withdrawal of blood).
Blood flow to the left hind limb is measured with an electromagnetic flow probe around the left external iliac artery. The whole of the left hind limb is made to contract at 3 Hz for 20 minutes duration by stimulating the sciatic and femoral nerves. Active tension produced by the extensor digitorum longus and peroneous longus muscles is measured isometrically with a force transducer. Exercise is repeated twice within the same animal, in either the absence or presence of the test compound. Test compounds are assessed for their ability to reduce the vasodilatation during skeletal muscle contraction.

In a further assay the target is T1, A2 Adenosine receptor (Rattus norvegicus, UniProt P30543).
T1 construct: membrane preparations derived from the rat phaeochromocytoma cell line PC 12; host or cells: PC 12 (rat phaeochromocytoma) membranes
T1 sequence (P30543 whole entry): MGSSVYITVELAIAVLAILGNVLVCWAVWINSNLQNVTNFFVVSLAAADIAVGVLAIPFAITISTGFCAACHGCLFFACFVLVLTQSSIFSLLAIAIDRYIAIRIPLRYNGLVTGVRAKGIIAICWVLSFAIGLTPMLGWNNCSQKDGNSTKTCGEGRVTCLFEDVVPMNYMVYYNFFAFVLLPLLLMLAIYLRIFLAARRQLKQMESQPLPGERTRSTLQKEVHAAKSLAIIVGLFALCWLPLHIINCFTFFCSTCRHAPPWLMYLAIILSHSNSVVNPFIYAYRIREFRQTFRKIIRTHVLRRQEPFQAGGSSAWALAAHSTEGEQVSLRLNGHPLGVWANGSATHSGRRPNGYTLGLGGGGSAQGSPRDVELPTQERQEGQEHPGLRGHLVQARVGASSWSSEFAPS
Kind of assay: A2 Adenosine receptor affinity test ([3H]-NECA displacement, PC12 membranes). Format: binding. The settings on record: rat PC12 cell membranes, 30° C., 90 minutes. The protocol:
The separated cells are then suspended in hypotonic solution (distilled water), allowed to stand on ice for 30 minutes and are then carefully homogenized using a standard high-speed homogeniser with periodic ice-cooling to obtain a fine suspension. […] The mixture is then incubated at 37° C. After 20 minutes, the reaction is terminated by dilution with ice-cold buffer and transfer onto ice. The material obtained containing the cell membranes is recovered by centrifugation and washed by resuspension in buffer and recentrifugation. The pellet produced is then resuspended in ice-cold buffer using a hand-driven homogenizer. The resultant membrane suspension is frozen and stored under liquid nitrogen until required.
After incubation, the samples are rapidly filtered over glass-fibre mats and the filter mats are washed to remove non-receptor-bound radioligand. Receptor-bound radioligand entrapped on the filter mats is then determined by liquid scintillation counting. Filtration and washing are carried out using a conventional vacuum filtration cell harvester. The specific binding (defined as the difference between the total binding and the non-specific binding) in the presence of the particular test compound is determined and compared with the control value.

The target of assay [3] is T2, adenosine receptor known as A1 (Cavia porcellus, UniProt P47745).
T2 construct: Atrial pairs are obtained from guinea-pigs (Dunkin Hartley strain); from tissue; host or cells: guinea-pig spontaneously beating atrial pairs (Dunkin Hartley)
T2 sequence (P47745 1-326): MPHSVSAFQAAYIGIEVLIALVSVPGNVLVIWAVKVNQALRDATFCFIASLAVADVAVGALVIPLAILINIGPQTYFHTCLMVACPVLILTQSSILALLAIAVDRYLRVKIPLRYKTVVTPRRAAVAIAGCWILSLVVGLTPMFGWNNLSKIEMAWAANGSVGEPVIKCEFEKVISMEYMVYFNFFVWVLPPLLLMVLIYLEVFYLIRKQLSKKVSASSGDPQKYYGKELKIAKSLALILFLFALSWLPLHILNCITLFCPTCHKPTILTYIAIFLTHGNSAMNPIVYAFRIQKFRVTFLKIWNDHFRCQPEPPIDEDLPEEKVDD
Kind of assay: Guinea-pig Atrial Bradycardic Test. The note with it: antagonism of 2-chloroadenosine bradycardia in beating guinea-pig atrial pair; read-out: pA2 (converted). Format: biochemical. The procedure:
(c) Guinea-pig Atrial Bradycardic Test
The atrial pair preparation may be obtained as follows: Atrial pairs are obtained from guinea-pigs (Dunkin Hartley strain, 250-400 g males) and mounted in organ baths containing oxygenated Krebs buffer solution (95% O2; 5% CO2) at 37° C. The spontaneously beating atria are then placed under a resting tension of 1 g and allowed to equilibrate for 50 minutes with continuous overflow. Overflow is then stopped and adenosine deaminase (1 Unit/ml) added to prevent the accumulation of endogenously produced adenosine. After equilibration for 15 minutes, a cumulative dose response curve to the adenosine mimetic, 2-chloroadenosine(10^-8 M to 10^-4 M) is administered to produce a maximal slowing of atrial rate. After washout during 30 minutes, adenosine deaminase is readministered to the bath which is allowed to equilibrate for 15 minutes. A 10^-5 M solution of the test compound in DMSO is then added to the bath which is left to incubate for 30 minutes. Any effect on the beating rate due to the test compound is noted before the dose response curve to 2-chloroadenosine is repeated. Compounds which are adenosine antagonists attenuate the 2-chloroadenosine response.
Test compounds are assessed by comparing dose response curves to 2-chloroadenosine alone with those obtained in the presence of the compound. […]

Turning to `Cn1c(=O)c2[nH]cnc2n(C)c1=O` [1,3-dimethylxanthine], the pA2 result in assay [1] was “about 5”. Further, the “inhibition of vasodilatation during skeletal muscle contraction” value in assay [2] was “significant inhibition”.

The term IC50 denotes the concentration needed to halve the response being measured. A low value points to greater potency in that assay. Regarding `Nc1nc(NCCc2ccc(Oc3nc(N)n4nc(-c5ccco5)nc4n3)cc2)nc2nc(-c3ccco3)nn12` [Example 1, 7-amino-5-[4-(2-[7-amino-2-(2-furyl)-[1,2,4]triazolo[1,5-a][1,3,5]triazin-5-ylamino]ethyl)phenoxy]-2-(2-furyl)[1,2,4]triazolo[1,5-a][1,3,5]triazine], the IC50 at A2 Adenosine receptor is about 0.794 nM. In addition, the Kb in assay [3] was 1000 nM.
